# Assay results as given in patent publication US20040241754A1, “Modulating neuronal plasticity” (The Salk Institute for Biological Studies, priority 2003, published 2004).
# “Also recorded” adds a separate entry of the source. Ends that are not written are not given here.
# T1: GRIP PDZ 6 domain (Rattus norvegicus, UniProt P97879)
# T1 construct: a GRIP fragment containing only the PDZ 6 domain; made in house; host or cells: E. coli BL21 (inferred from the PDZ4-6 construct)
# T1 sequence (P97879 672-754 limits assumed): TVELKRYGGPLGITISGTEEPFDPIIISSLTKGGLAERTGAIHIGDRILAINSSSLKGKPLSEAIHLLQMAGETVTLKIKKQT
# T2: GRIP PDZ4-6 (Rattus norvegicus, UniProt P97879)
# T2 construct: corresponding to GRIP1 (amino acid 448-792); made in house; host or cells: E. coli BL21
# T2 sequence (P97879 448-792): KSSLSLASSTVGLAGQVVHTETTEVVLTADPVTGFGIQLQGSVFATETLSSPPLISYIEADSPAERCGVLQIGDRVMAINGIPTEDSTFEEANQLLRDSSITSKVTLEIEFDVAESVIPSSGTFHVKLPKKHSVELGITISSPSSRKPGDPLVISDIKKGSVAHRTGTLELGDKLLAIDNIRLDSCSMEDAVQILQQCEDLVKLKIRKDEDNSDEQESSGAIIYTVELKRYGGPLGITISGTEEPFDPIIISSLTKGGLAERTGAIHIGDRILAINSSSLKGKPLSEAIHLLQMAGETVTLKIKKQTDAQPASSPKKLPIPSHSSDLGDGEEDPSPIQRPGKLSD
# B1: ephrin-A4: a 201 amino acid polypeptide; ephrin ligand (protein, UniProt P52798 26-170, looked up)
# Ephrin-A4: LRHVVYWNSSNPRLLRGDAVVELGLNDYLDIVCPHYEGPGPPEGPETFALYMVDWPGYESCQAEGPRAYKRWVCSLPFGHVQFSEKIQRFTPFSLGFEFLPGETYYYISVPTPESSGQCLRLQVSVCCKERKSESAHPVGSPGES
# Key:
# [1] = test system: mossy fiber synapses of hippocampal CA3 pyramidal neurons; assay: Mossy fiber LTP, whole-cell patch clamp in hippocampal slices; format: cell-based, mice
# Method: The role of the GluR2 subunit in LTP at mossy fiber terminals was evaluated in whole cell patch clamp experiments using hippocampal CA3 pyramidal neurons. Briefly, transverse hippocampal slices (350 μm) were made from P12-18 mice (strain 129SvEv) as previously described (Contractor et al., Neuron 29, 209-16. (2001)). Slices were transferred to a recording chamber, and whole-cell patch clamp recordings made from visually identified pyramidal cells in the CA3 region of the hippocampus. The recording electrode (i.e., patch electrode) is filled with an “internal” solution described below. A seal between the glass of the electrode and the membrane of the cell is made. The seal is then “broken through” by pushing the electrode through the membrane to gain low resistance access to the cell interior and enable voltage clamping of the cell membrane. This also allows dialysis of the cell with test reagents such as peptides and antibodies. A stimulating electrode is attached to a current source and allows current to stimulate action potentials while a reference electrode is placed in the recording bath. The composition of the internal solution was: 95 mM CsF, 25 mM CsCl, 10 mM Cs-HEPES, 10 mM Cs-EGTA, 2 mM NaCl, 2 mM Mg-ATP, 10 mM QX-314, 5 mM TEA-Cl, 5 mM 4-AP, pH adjusted to 7.3 with CsOH.
# Peptides were added directly to the internal solution on the day of the experiment from frozen stocks in protease inhibitors made up in phosphate buffered saline (PBS). To avoid leakage of peptides or antibodies into the extracellular space, pipette tips were filled with normal internal solution and then the pipette was backfilled with peptide/antibody containing internal fluid. The final concentration of peptides was 50 μM in all experiments. The final concentration of protease inhibitors were: bestatin 2 μg/ml, leupeptin 25 ng/ml, pepstatin 35 ng/ml, aprotinin 100 ng/ml.
# In control experiments where peptides were not included, internal solutions were made up in exactly the same way with protease inhibitors in PBS but lacking any added peptide. Antibodies were made up in PBS stock and added directly to the internal solution at a final concentration of 20 μg/ml. The pH and osmolarity of all internal solutions were checked before use. Series resistances (Rs) were generally <10M and were continuously monitored throughout the duration of the experiment. […] Experiments using mutant mice were performed with heterozygous breedings blind to the genotype of the animal.
# Mossy fiber EPSCs were evoked with a monopolar glass electrode positioned in the stratum lucidum. EPSCs were evaluated using a 40 ms interval between recordings. All recordings were made in the continuous presence of bicuculline (10 μM), picrotoxin (50 μM) and the NMDA receptor antagonist D-AP5 [D(-)-2-Amino-5-phosphonopentanoic acid; 50 μM]. The group II mGluR agonist, LCCG-1 (10 μM), which selectively depresses mossy fiber transmission, was applied at the end of each experiment. LTP was induced by tetanic stimulation comprising three 1 s stimulations (100 Hz) with a 10 s interval. Data are presented as mean±SEM. Parameters were compared using the Student's unpaired t-test where not specified, and the K-S test, p<0.05 was considered significant.
# Cumulative probability is determined by ranking the EPSC data set from the highest to the lowest value from 20 to 30 minutes post tetanization. Each point is graphed with its corresponding percentile. […] The lowest LTP value was about 40% signified by the lowest point on the 1 st graph (open circles) and the largest LTP was about 160%.
# [2] = target: T1, GRIP PDZ 6 domain; assay: Competitive binding of 35S-EphB2 to His-GRIP-PDZ6
# Source text: Briefly, the carboxy terminal region of EphB2 corresponding to mouse EphB2 receptor (amino acid 930-993) was generated by PCR from mouse brain library and subcloned into pGEX2TK (Pharmacia). The GRIP(PDZ4-6) construct, corresponding to GRIP1 (amino acid 448-792) was obtained by PCR from an adult rat hippocampal library and subcloned into pRSET vector. E coli (strain BL21) were transformed with His-GRIP(PDZ4-6) and GST-EphB2 and protein production induced with IPTG. GST-EphB2 protein was purified on glutathionine beads and ^35S-EphB2 cleaved from GST with thrombin (1 U/μg). GRIP(PDZ4-6) protein was purified on Ni-NTA agarose, and eluted with imadazole. ^35S-EphB2 (50 nM) was incubated with (15 μg) of His-GRIP(PDZ4-6) protein in PBS buffer with protease inhibitors for 2 hrs at 22° C. in the absence or presence of peptides. ^35S-EphB2 binding to His-GRIP(PDZ4-6) was determined after a 45 min incubation with Ni-NTA agarose and vacuum filtration onto Whatman GFB filter circles (pretreated with 3% BSA). Filters were washed with ice-cold PBS buffer, allowed to equilibrate overnight in ECOLUME scintillation cocktail (ICN pharmaceuticals, Irvine Calif.), and specific counts measured in a scintillation counter. Non-specific binding was defined as the residual binding measured in the absence of His-GRIP(PDZ4-6). […]
# [3] = target: T2, GRIP PDZ4-6; assay: Competitive binding of 35S-EphB2 to His-GRIP-PDZ4-6; settings: 35S-EphB2 50 nM; fitted to the Hill equation; read-out: Ki, displacement of 35S-EphB2 binding to His-GRIP-PDZ 4-6
# Method: A competitive binding assay was prepared to determine if the LTP inhibitory effects of the GluR2ct peptide were mediated through disruption of binding between Eph receptors and PDZ domain 6 of GRIP (Torres et al., Neuron 21, 1453-63. (1998)) as opposed to disruption of binding between the GluR2 subunit and the GluR2-binding PDZ 4 and 5 domains of GRIP (Dong et al., Nature 386, 279-84. (1997)). For this purpose, a binding assay was established between GRIP PDZ domain fragments (His-GRIP-PDZ4-6) and an EphB2 carboxy terminal fusion protein labeled with ^35S-methionine (^35S-EphB2).
# Briefly, the carboxy terminal region of EphB2 corresponding to mouse EphB2 receptor (amino acid 930-993) was generated by PCR from mouse brain library and subcloned into pGEX2TK (Pharmacia). The GRIP(PDZ4-6) construct, corresponding to GRIP1 (amino acid 448-792) was obtained by PCR from an adult rat hippocampal library and subcloned into pRSET vector. E coli (strain BL21) were transformed with His-GRIP(PDZ4-6) and GST-EphB2 and protein production induced with IPTG. GST-EphB2 protein was purified on glutathionine beads and ^35S-EphB2 cleaved from GST with thrombin (1 U/μg). GRIP(PDZ4-6) protein was purified on Ni-NTA agarose, and eluted with imadazole. ^35S-EphB2 (50 nM) was incubated with (15 μg) of His-GRIP(PDZ4-6) protein in PBS buffer with protease inhibitors for 2 hrs at 22° C. in the absence or presence of peptides. ^35S-EphB2 binding to His-GRIP(PDZ4-6) was determined after a 45 min incubation with Ni-NTA agarose and vacuum filtration onto Whatman GFB filter circles (pretreated with 3% BSA). Filters were washed with ice-cold PBS buffer, allowed to equilibrate overnight in ECOLUME scintillation cocktail (ICN pharmaceuticals, Irvine Calif.), and specific counts measured in a scintillation counter. Non-specific binding was defined as the residual binding measured in the absence of His-GRIP(PDZ4-6).
# [4] = target: EphB1; settings: read-out: Kd for binding to EphB1; cited from earlier work
# [5] = target: EphA4 (Homo sapiens, UniProt P54764); settings: read-out: Kd for binding to EphA4; cited from earlier work
# [6] = peptide 50 μM in patch electrode, 40 ms interval
# EphA4, sequence (P54764 20-986, species assumed): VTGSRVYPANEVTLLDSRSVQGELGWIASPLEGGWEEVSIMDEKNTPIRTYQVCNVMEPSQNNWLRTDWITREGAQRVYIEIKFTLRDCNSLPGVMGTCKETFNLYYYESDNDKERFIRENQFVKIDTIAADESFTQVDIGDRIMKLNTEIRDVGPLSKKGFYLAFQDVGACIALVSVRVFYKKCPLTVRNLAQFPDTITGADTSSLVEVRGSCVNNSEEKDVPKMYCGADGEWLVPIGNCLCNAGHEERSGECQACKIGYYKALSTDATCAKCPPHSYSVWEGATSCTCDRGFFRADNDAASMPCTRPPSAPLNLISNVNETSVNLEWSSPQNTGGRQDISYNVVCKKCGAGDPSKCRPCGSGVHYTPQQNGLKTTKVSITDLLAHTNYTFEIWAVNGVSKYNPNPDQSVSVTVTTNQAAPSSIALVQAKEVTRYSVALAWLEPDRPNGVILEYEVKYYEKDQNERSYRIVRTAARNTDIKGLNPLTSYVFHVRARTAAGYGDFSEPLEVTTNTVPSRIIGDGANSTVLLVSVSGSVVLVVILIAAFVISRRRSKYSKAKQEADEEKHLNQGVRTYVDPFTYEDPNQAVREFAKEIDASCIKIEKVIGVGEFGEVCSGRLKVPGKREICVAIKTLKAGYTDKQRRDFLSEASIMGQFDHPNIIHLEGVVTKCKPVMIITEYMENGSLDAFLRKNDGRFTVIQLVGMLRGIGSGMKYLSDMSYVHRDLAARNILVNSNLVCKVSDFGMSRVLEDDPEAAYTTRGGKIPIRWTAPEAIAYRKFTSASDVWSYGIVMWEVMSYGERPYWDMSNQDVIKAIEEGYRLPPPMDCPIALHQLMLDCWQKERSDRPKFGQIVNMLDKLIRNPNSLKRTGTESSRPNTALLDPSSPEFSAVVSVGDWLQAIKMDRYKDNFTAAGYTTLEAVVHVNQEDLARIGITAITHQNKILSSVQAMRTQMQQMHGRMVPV
Molecule,"LTP (potentiation of the EPSC after tetanic stimulation) ([1]; peptide 50 μM in patch electrode (postsynaptic), 25 to 30 minutes after tetanic stimulation)","LTP PPR (paired pulse ratio after LTP induction) [1, 6]","control PPR (paired pulse ratio before LTP induction) [1, 6]","PTP (post-tetanic potentiation) ([1]; peptide 50 μM in patch electrode, immediately following tetanic stimulation)",effect on basal synaptic transmission / basal EPSC amplitudes ([1]; peptide in patch electrode),paired pulse ratio after LTP induction versus pretetanic ([1]; peptide in patch electrode),effect on tetanus induced LTP ([1]; peptide in patch electrode (postsynaptic)),displacement of EphB2 from / binding to GRIP PDZ domain 6 [2],"Ki ([2]; read-out: Ki, displacement of 35S-EphB2 binding to His-GRIP-PDZ6)",Ki [3],Kd [4],Kd [5]
"NVYGIESVKI [GluR2ct, Asn-Val-Tyr-Gly-Ile-Glu-Ser-Val-Lys-Ile]",140±11%,2.5±0.12,2.8±0.14,510±67%,small effect on basal synaptic transmission in some neurons,no significant difference after induction of LTP,little potentiation was observed; also recorded: significantly less potentiation; also recorded: inhibit mossy fiber hippocampal CA3 neuronal LTP,binds directly to PDZ domain 6 of GRIP; also recorded: can displace EphB2,155 nM,106 nM,–,–
B1,–,–,–,–,–,–,–,–,–,–,20 nM,5 nM
